Assay results published in patent US11998602B2, “Methods for promoting myelination and for treating demyelinating diseases” (The Scripps Research Institute, priority 2018, dated 2024).

What was measured:
Format in all cases: cell-based, rat
[1] = tested on: primary mouse cortical neurons co-cultured with OPCs; experiment: In vitro OL maturation assay, MBP-colocalization with co-cultured axons
Protocol: In vitro OL maturation assay. Cortical and hippocampal tissue was dissected from C57BL/6 mice at embryonic day 14 and dissociated in 0.5% Trypsin with 100 U/mL DNase I diluted in HBSS (+/+) for 10 min at 37° C. Reaction was stopped by supplementing to a final concentration of 10% v/v FBS, 100 μg/mL Soybean Trypsin Inhibitor and 10 U/mL DNase I. Cells were resuspended in plating media consisting of equal volumes of FCS, HBSS (+/+), High-Glucose DMEM with L-glutamine, and F-12 with L-glutamine, then plated onto acid pre-washed German glass coverslips coated with 50 μg/mL Poly-D-Lysine and 20 μg/mL Laminin at a density of 50,000 cells/cm^2. Cells were allowed to attach for 2 hrs and then coverslips were rinsed with PBS before being transferred to a 24-well plate containing 0.5 mL growth media consisting of: Neurobasal medium, B27 supplement (Gibco), 0.5× Glutamax (Thermo), 5 μg/mL gentamycin and 5 μM glutamic acid. Half of the cell media was replaced after 3 DIV with supplemental growth media not containing glutamic acid^47. After 5 DIV, rat-derived cortical OPCs were added to the neuronal culture at a density of 5,000 cells/cm^2. Co-culture media used to resuspend and plate OPCs consisting of a 1:3 mixture of neuronal growth supplement (as above) and oligodendrocyte differentiation media, containing DMEM/F-12 (with L-glutamine), insulin-free N2 supplement, 1× Glutamax, 1×MEM non-essential amino acids, 1× β-mercaptoethanol, 2 ng/mL PDGF and 5 μg/mL gentamycin. All drugs and taurine co-treatment were added once to culture upon plating of OPCs at the following concentrations: 0.5 μM benztropine, 1.0 μM miconazole, each with or without 2 mM taurine. Cultures were maintained by replacing half of the media every three days, maintaining an equivalent concentration of taurine throughout in appropriate wells. […] Co-localization was quantified within regions of interest delineated as the periphery of individual oligodendrocytes. The co-localization index (adapted from a previously described method^48) was calculated as total proportion of co-localized 3D surface area between Tuj1 (neuron) and oligodendrocyte (MBP) over total Tuj1 (neuronal process) area enclosed within each oligodendrocyte process tree as the selected region of interest (ROI, see FIG. 3B″). Mean colocalization values for each condition were normalized to the DMSO condition mean analyzed statistically using Prism software (GraphPad, v7) for two-way ANOVA comparisons (Drug Treatment×Taurine Supplement) with Tukey post-tests for statistical significance. […]

[2] = tested on: OPCs; experiment: Mitochondrial respiration assay (oxygen consumption rate, XFe96 Seahorse); conditions: 2 mM taurine, day 6, basal and benztropine- or miconazole-induced differentiation conditions
Protocol: Mitochondrial respiration assay. Cellular oxygen consumption rate (OCR) was measured using an XFe96 extracellular flux analyzer (Seahorse Biosciences). OPCs were seeded at 40,000 cells/well in PLP-coated XFe96 plates and cultured for 6 days with taurine (2 and 20 mM) alone, or together with miconazole and benztropine. Cells were then incubated in assay medium (DMEM with 20 mM glucose, 5 mM pyruvate and 5 mM sodium bicarbonate, pH˜7.4) for at least 30 min prior to the assay. Media to deliver a final assay well concentration corresponding to of 1 μM oligomycin, 2 μM carbonyl cyanide 4-(trifluoromethoxy) phenylhydrazone (FCCP) and 2 μM rotenone+2 μM antimycin A were pre-loaded into the compound delivery ports of the system. The assay starts with the recording of the basal OCR, followed by recording of the OCR in response to different compounds that constitute the Mitochondria Stress Test (Seahorse Biosciences, Agilent). Once the basal OCR was measured, the compounds were added sequentially and the effects on OCR measured 3 times every 5 min. Oligomycin blocks ATP synthase; FCCP dissipates the inner membrane potential enabling maximum electron flux through the electron transport chain (ETC); rotenone+antimycin A inhibit complexes I and III, respectively, thereby blocking the entry of electrons in the ETC and shutting down mitochondrial activity.

[3] = tested on: OPCs; experiment: Caspase-Glo 3/7 and Cell Titer Glo assays of apoptosis and survival during differentiation
Protocol: Detection of caspase 3/7. In poly-D-lysine-coated white 96-well plates (Greiner), cells were seeded at 5,000 cells per well. Taurine (20 mM) was added on days 0 or 3, alone and in combination with benztropine (0.5 μM), miconazole (2 μM), T3 (1 μM) or Staurosporine (1 μM) added on day 0. The Caspase-Glo 3/7 Assay (Promega) was utilized to quantify caspase-3/7 activity 6, 24 and 48 h after drug and taurine addition on day 0. Caspase-3/7 activity was also measured 24, 48 and 72 h (days 4, 5 and 6) after taurine addition on day 3.

## NCCS(=O)(=O)O [taurine, 2-aminoethanesulfonic acid]
[1]; 0.5 μM benztropine, 1.0 μM miconazole or 2 mM taurine alone, 14 days
  MBP-colocalization with axons, treatment alone vs. DMSO (Tukey post hoc): no significant difference
[1]; 2 mM taurine in cultures treated with benztropine or miconazole, 14 days of neuron-OPC co-culture
  Index of MBP-colocalization with axons: significantly increase
[2]
  Oxygen consumption rate (OCR) values: significantly increase
[3]; 20 mM taurine with 1 μM staurosporine (apoptosis inducer)
  Apoptosis in OPCs treated with staurosporine: significantly inhibit
[3]; 24 hours after taurine addition at day 0 or day 3, 1 μM T3, 0.5 μM benztropine or 2 μM miconazole
  Caspase 3/7 activation: decrease
[3]; DMSO vehicle
  Apoptosis or survival under basal differentiation conditions: not found to impact
